Like-named read-outs stand apart in the source and are kept apart here.
Tests used:
clinical = conditions: both, human, whole blood, oral
[1] = Tacrolimus pharmacokinetics stratified by CYP3A5 metabolic composite and ABCB1 3435 genotype; format: in vivo, human; conditions: for Tmax / AUC / Cmax / concentration at 12 h / clearance: human, whole blood, oral; for concentration at 12 h: read-out: C12hr; for clearance: read-out: CL/LBW (converted)
Protocol: To assess the role of both CYP3A5 and ABCB1 variants on tacrolimus pharmacokinetics the CYP3A5 metabolic composite groups and the ABCB1 3435C > T (rs1045642) were included in a single analysis. […] Significant effects of both CYP3A5 and ABCB1 variants on tacrolimus pharmacokinetics was assessed using multivariate analysis of variance.
All patient demographics and tacrolimus pharmacokinetic parameters were summarized by metabolic composite score for CYP3A5^∗3^∗6^∗7 using the mean and standard deviation for continuous variables. The potential trend between metabolic composite genotypes and association to tacrolimus pharmacokinetics were evaluated using the two-sided Jonckheere-Terpstra test for trends ([Jonckheere, 1983]). Post hoc pairwise comparisons were made using Holm-Bonferroni adjusted Wilcoxon rank sum tests (version 9.3, SAS Institute, Cary, NC). Significant combined effects reflecting composite metabolic CYP3A5 and ABCB1 variants on tacrolimus pharmacokinetics was assessed using multivariate analysis of variance ([Littell et al., 2006]). Significant effects are shown in bold.

[2] = single chromosome; for AUC0–4, phenotypic mean [95% CI] / AUC*, phenotypic mean [95% CI]: race adjusted Thesias; for CL_F, phenotypic mean [95% CI]: sex-adjusted Thesias
[3] = 12-h steady-state tacrolimus pharmacokinetics by CYP3A5*3*6*7 metabolic composite group in renal transplant recipients; format: in vivo, human
Protocol: (§1) Tacrolimus doses were adjusted to 4–9 ng/ml troughs based upon time post-transplant and clinical response using a program-specific minimization protocol. ECMPS was dose adjusted based upon clinical response. Estimated glomerular filtration rate (e-GFR) was calculated using the four-factor MDRD equation ([Levey et al., 1999]). Medication adherence was verified by transplant nurse clinician and medication adherence assessment by transplant pharmacist at enrollment. Ethnicity for two previous generations was verified prior to study.
Loss of protein function due to any one of these variants can occur independent of allelic status at the other two loci; thus assessment of any single SNP may be misleading as an indicator of enzyme function. Patients were assigned a metabolic composite designation as described earlier ([Campagne et al., 2018]) based upon the combined allelic status at all three independent loci (Figure 1). The Extensive Metabolizer phenotype was assigned to individuals with functional genes on both chromosomes. Patients were assigned the Poor Metabolizer phenotype if they were homozygous for the variant allele at any one of the three SNPs and thus CYP3A5 genes on both chromosomes are non-functional (Figure 1C). Patients were designated as Intermediate Metabolizer if they were heterozygous for one loss of function SNP at any of the three loci (Figure 1B). Finally, for patients who were heterozygous at two or more of the SNPs responsible for loss of function, the level of enzyme is dependent upon the arrangement of the variant alleles on each chromosome (Figure 1D). […] For this analysis double heterozygotes (Figure 1D) were conservatively assigned as an Intermediate Metabolizer since individuals could either be poor or intermediate metabolizers.

[4] = MPA trough at 12 h in study patients by CYP3A5*3*6*7 metabolic group; conditions: both sexes, human, in vivo, oral, ECMPS at steady state
Protocol: as §1

[5] = ABCB1 3534 CC, CYP3A5 Extensive (N 6)
[6] = ABCB1 3534 CC, CYP3A5 Intermediate (N 10)
[7] = ABCB1 3534 CC, CYP3A5 Poor (N 13)
[8] = ABCB1 3534 CT and TT, CYP3A5 Extensive (N 6)
[9] = ABCB1 3534 CT and TT, CYP3A5 Intermediate (N 10)
[10] = ABCB1 3534 CT and TT, CYP3A5 Poor (N 20)
[11] = 2.35 mg, ABCB1 3534 CT and TT, CYP3A5 Poor (N 20)
[12] = 2.46 mg, ABCB1 3534 CC, CYP3A5 Poor (N 13)
[13] = 3.55 mg, ABCB1 3534 CT and TT, CYP3A5 Intermediate (N 10)
[14] = 4 mg, ABCB1 3534 CC, CYP3A5 Intermediate (N 10)
[15] = 5.08 mg, ABCB1 3534 CT and TT, CYP3A5 Extensive (N 6)
[16] = 5.67 mg, ABCB1 3534 CC, CYP3A5 Extensive (N 6)

## C=CC[C@@H]1/C=C(\C)C[C@H](C)C[C@H](OC)[C@H]2O[C@@](O)(C(=O)C(=O)N3CCCC[C@H]3C(=O)O[C@H](/C(C)=C/[C@@H]3CC[C@@H](O)[C@H](OC)C3)[C@H](C)[C@@H](O)CC1=O)[C@H](C)C[C@@H]2OC [tacrolimus]
clinical; 1.58 mg
  clearance: 6 mL/min/kg
clinical; 2.45 mg
  clearance: 8 mL/min/kg
[1]; [5]
  AUC0–12 Dose: 23.95 (8.30) ng.hr/ml/mg
  C12hr/dose: 1.43 (0.55) ng/ml/mg
  CL_F: 48.23 (4.32) L/hr
  Cmax/Dose: 3.36 (1.19) ng/ml
[1]; [6]
  AUC0–12 Dose: 36.76 (6.43) ng.hr/ml/mg
  AUC*: 130.75 (9.73) ng.hr/ml
  C12hr/dose: 2.16 (0.43) ng/ml/mg
  CL_F: 31.30 (3.35) L/hr
  Cmax/Dose: 5.21 (0.92) ng/ml
[1]; [7]
  AUC0–12 Dose: 56.39 (5.64) ng.hr/ml/mg
  C12hr/dose: 3.44 (0.37) ng/ml/mg
  CL_F: 22.61 (2.94) L/hr
  Cmax/Dose: 7.20 (0.81) ng/ml
[1]; [8]
  AUC0–12 Dose: 28.97 (8.30) ng.hr/ml/mg
  AUC*: 129.45 (12.57) ng.hr/ml
  C12hr/dose: 1.57 (0.55) ng/ml/mg
  CL_F: 39.53 (4.32) L/hr
  Cmax/Dose: 4.95 (1.19) ng/ml
[1]; [9]
  AUC0–12 Dose: 42.94 (6.43) ng.hr/ml/mg
  C12hr/dose: 2.40 (0.43) ng/ml/mg
  CL_F: 24.49 (3.35) L/hr
  Cmax/Dose: 6.61 (0.92) ng/ml
[1]; [10]
  AUC0–12 Dose: 56.80 (4.55) ng.hr/ml/mg
  C12hr/dose: 3.30 (0.30) ng/ml/mg
  CL_F: 20.09 (2.37) L/hr
  Cmax/Dose: 8.09 (0.65) ng/ml
[1]; across all 3 CYP3A5 metabolic composite groups, P = 0.040
  effect of ABCB1 3435 T allele on tacrolimus clearance: significantly reduced
[1]; both sexes, 2.46 mg, ABCB1 3534 CC, CYP3A5 Poor (N 13)
  Tmax: 1.94 h
[1]; both sexes, 4 mg, ABCB1 3534 CC, CYP3A5 Intermediate (N 10)
  Tmax: 1.87 h
[1]; both sexes, 5.67 mg, ABCB1 3534 CC, CYP3A5 Extensive (N 6)
  Tmax: 1.78 h
[1]; 2.35 mg, ABCB1 3435 CT and TT, CYP3A5 Poor (N 20)
  AUC: 118 ng·h/mL
[1]; [11]
  Cmax: 17 ng/mL
  Tmax: 1.72 h
  concentration at 12 h: 6.81 ng/mL
  clearance: 6.5 mL/min/kg
[1]; 2.46 mg, ABCB1 3435 CC, CYP3A5 Poor (N 13)
  AUC: 117 ng·h/mL
[1]; [12]
  Cmax: 15.7 ng/mL
  concentration at 12 h: 6.94 ng/mL
  clearance: 6.17 mL/min/kg
[1]; 3.55 mg, ABCB1 3435 CT and TT, CYP3A5 Intermediate (N 10)
  AUC: 150 ng·h/mL
[1]; [13]
  Cmax: 23.3 ng/mL
  Tmax: 2.29 h
  concentration at 12 h: 8.37 ng/mL
  clearance: 6.83 mL/min/kg
[1]; [14]
  Cmax: 18.6 ng/mL
  concentration at 12 h: 7.55 ng/mL
  clearance: 9.17 mL/min/kg
[1]; [15]
  Cmax: 23.7 ng/mL
  Tmax: 2.03 h
  concentration at 12 h: 6.58 ng/mL
  clearance: 13.2 mL/min/kg
[1]; 5.67 mg, ABCB1 3435 CC, CYP3A5 Extensive (N 6)
  AUC: 122 ng·h/mL
[1]; [16]
  Cmax: 17 ng/mL
  concentration at 12 h: 7.4 ng/mL
  clearance: 15 mL/min/kg
[2]; ABCB1 variant haplotype TTT
  C max/Dose, phenotypic mean [95% CI]: 4.06[3.19 – 4.93] ng/ml/mg
  AUC0–4, phenotypic mean [95% CI]: 43.9 [33.4 – 54.4] ng.hr/ml/mg
  AUC*, phenotypic mean [95% CI]: 92.2 [74.6 – 109.8] ng.hr/ml/mg
  CL_F, phenotypic mean [95% CI]: 13.99 [7.87 – 20.11]* L/hr
[2]; ABCB1 wild type haplotype CGC
  C max/Dose, phenotypic mean [95% CI]: 3.01[2.42 – 3.59] ng/ml/mg
  AUC0–4, phenotypic mean [95% CI]: 36.59 [30.2 – 42.9] ng.hr/ml/mg
  AUC*, phenotypic mean [95% CI]: 80.0[68.8 – 91.1] ng.hr/ml/mg
  CL_F, phenotypic mean [95% CI]: 20.4 [14.5 – 26.3]* L/hr
[3]; Blacks, 10/33
  patients with 12-h tacrolimus exposures <120 ng.hr/ml: 30%
[3]; P < 0.001
  AUC* lower in Extensive than Poor metabolizers: 50%
[3]; Whites, 17/32
  patients with 12-h tacrolimus exposures <120 ng.hr/ml: 53%
[3]; all patients, in spite of achieving target troughs
  patients exhibiting AUC0–12 h below the recommended therapeutic range: approximately 40%
[3]; greater in Poor, P = 0.0016
  dose normalized trough (Cp12hr/dose), Poor compared to Extensive Metabolizers: 2.5 fold
[3]; higher in Poor, P < 0.001
  dose-adjusted AUC0–12 h, Poor compared to Extensive metabolizers: 2 fold
[3]; target range >4 ng/ml and <15 ng/ml
  patients within the therapeutic trough range: 64 of 65

## COc1c(C)c2c(c(O)c1C/C=C(\C)CCC(=O)O)C(=O)OC2 [MPA, mycophenolic acid]
[4]; CYP3A5*3*6*7 Extensive group (N 7)
  concentration at 12 h: 42 ng/mL
[4]; CYP3A5*3*6*7 Intermediate group (N 23)
  concentration at 12 h: 41 ng/mL
[4]; CYP3A5*3*6*7 Poor group (N 35)
  concentration at 12 h: 32 ng/mL
[4]; Overall (N 65)
  concentration at 12 h: 37 ng/mL

— PMC7433713, “Beyond Single Nucleotide Polymorphisms: CYP3A5^∗3^∗6^∗7 Composite and ABCB1 Haplotype Associations to Tacrolimus Pharmacokinetics in Black and White Renal Transplant Recipients” (Frontiers in Genetics, 2020)
